Data published in patent US5338747A, “Benzoisothiazolinone-1-dioxide derivatives as elastase inhibitors” (Chesebrough-Pond's USA Co., Division of Conopco, Inc., priority 1990, dated 1994).

Columns and labels:
[1] = target: T1, Human leucocytic elastase (Homo sapiens, UniProt P08246); test: Protective action on the elastin in rabbit skin sections treated with human leucocytic elastase; details: 1.5 h at 37° C.
T1 sequence (P08246 30-247 limits assumed): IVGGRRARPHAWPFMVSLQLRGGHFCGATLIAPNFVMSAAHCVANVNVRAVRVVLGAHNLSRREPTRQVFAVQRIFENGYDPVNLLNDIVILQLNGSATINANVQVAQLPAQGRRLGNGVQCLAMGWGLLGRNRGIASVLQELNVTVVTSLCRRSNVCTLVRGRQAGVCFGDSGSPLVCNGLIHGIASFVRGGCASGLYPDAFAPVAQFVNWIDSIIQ
Method: The segments of rabbit skin were incubated for 1.5 h at 37° C. In the control experiment, they were incubated only with the buffer (100-mM tris-HCl, 0.1% of Brij 35, pH 8) under the same conditions. Thin sections of the skin specimens were then fixed for 2 min in 95% ethanol and stained for 3 h by a modified Verhoeff method, described by Godeau et al. [cf. Pathol. Biol., 32 (1984) pp. 215-6]. After a suitable contrast treatment, the surface density of the elastic fibres was determined by automatic image analysis, carried out directly on the microscope slides.

[2] = target: T1, Human leucocytic elastase; test: Inhibition of human leucocytic elastase (succinyltrialanine p-nitroanilide substrate); type: biochemical; details: elastase 1 μg/ml, pre-incubated 15 min; 1% acetone; 410 nm
Method: (§1) The inhibition test was carried out by using succinyltrialanine p-nitroanilide as a synthetic substrate. Human leucocytic elastase, used at a concentration of 1 μg/ml, was first pre-incubated for 15 min with the compounds of the invention, used at a concentration of 0.5, 5, 10, 25 and 50 μg/ml. These compounds were added in the form of a solution in acetone, the final acetone concentration of the reaction mixture being 1%.
The degree of hydrolysis of the substrate was determined by measuring the amount of p-nitroaniline released, using a Philips PO 8700 spectrophotometer at 410 nm. The 50% inhibitory concentration (IC50) in mole/liter was then determined by a graphical method, using the inhibition values obtained with the different concentrations of the substrate and the inhibitor. […] It can thus be seen that the inhibitory action of these compounds increases with the number of carbon atoms in the R^2 group on going from C9 to C17.

[3] = target: T1, Human leucocytic elastase; test: Protective action on insoluble elastin against human leucocytic elastase (second and third series, elastin pre-incubated with compound); type: biochemical; details: 50-100 μg/ml, elastin first incubated with compound 30 min or 10 min
Method: Tritiated insoluble elastin extracted from the nuchal ligament was then added in a concentration of 75 μg/ml, corresponding to a radioactivity level of 2.2×10^6 counts per minute (cpm) per ml. 2) Protective action […] 3) Third series […] The mixture was then centrifuged, the supernatant was discarded, and the residue was suspended in the buffer that contained human leucocytic elastase. The degree of the hydrolysis of elastin was calculated in all three cases after incubation with elastase for 7 h at 37° C. by determining the radioactivity in the solubilized peptides derived from the elastin.

[4] = target: T1, Human leucocytic elastase; test: Direct inhibition of elastin-cleaving activity of human leucocytic elastase (first series, elastase pre-incubated with compound); type: biochemical; details: pH 8.4, 7 h at 37° C.
Method: 1) Inhibitory action […] Tritiated insoluble elastin extracted from the nuchal ligament was then added in a concentration of 75 μg/ml, corresponding to a radioactivity level of 2.2×10^6 counts per minute (cpm) per ml. The degree of the hydrolysis of elastin was calculated in all three cases after incubation with elastase for 7 h at 37° C. by determining the radioactivity in the solubilized peptides derived from the elastin.

[5] = target: T1, Human leucocytic elastase; test: Serine protease inhibition, E/IC50: human leucocytic elastase; type: biochemical; details: human leucocytic elastase vs thrombin
Method: as §1
The degree of hydrolysis of the substrate was determined by measuring the amount of p-nitroaniline released, using a Philips PO 8700 spectrophotometer at 410 nm. […]
The inhibition exerted by the following two compounds on serine-containing proteases other than human Teucocytic elastase was determined in this Example: […]
The appropriate substrate was then added to each enzyme, and its hydrolysis was monitored with a Philips 8700 spectrophotometer at 410 nm by measuring the amount of p-nitroaniline appearing in the medium. […]
(§2) Inhibition of human leucocytic elastase was also determined, as in Example 12.
(§3) To be able to compare the inhibitory power of the compounds tested on the various enzymes used, the E/IC50 value was calculated, where E is the concentration of the enzyme in the reaction mixture (also expressed in mole/l ). […]

Trypsin = target: T2, Trypsin (Bos taurus, UniProt P00760); test: Serine protease inhibition, E/IC50: trypsin; type: biochemical
T2 sequence (P00760 24-246): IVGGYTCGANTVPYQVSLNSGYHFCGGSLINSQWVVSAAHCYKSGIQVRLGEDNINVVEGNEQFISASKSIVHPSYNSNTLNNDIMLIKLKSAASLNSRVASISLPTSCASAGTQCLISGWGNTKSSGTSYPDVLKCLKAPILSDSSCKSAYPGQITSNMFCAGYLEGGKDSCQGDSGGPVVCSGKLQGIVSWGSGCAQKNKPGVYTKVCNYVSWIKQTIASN
Method: (§4) The inhibition exerted by the following two compounds on serine-containing proteases other than human Teucocytic elastase was determined in this Example:
(§5) More specifically, the activity of a) pig pancreatic elastase, b) trypsin, c) thrombin and d) plasmin was determined in the presence of these inhibitors and of the synthetic substrates: a) succinyltrialanine p-nitroanilide, b) N-benzoyl-DL-arginine p-nitroanilide, c) N-p-tosyl-gly-pro-arg p-nitroanilide and d) N-p-tosyl-gly-pro-lys p-nitroanilide, respectively.
(§6) Each enzyme was first incubated for 15 min with 0-50 μg/ml of compound B or P mentioned above, which had been dissolved in acetone as in the test with human leucocytic elastase, the final concentration of this solvent in the reaction mixture being 1%.
(§7) The appropriate substrate was then added to each enzyme, and its hydrolysis was monitored with a Philips 8700 spectrophotometer at 410 nm by measuring the amount of p-nitroaniline appearing in the medium.
The results were used to plot the inhibition of the enzymatic activity against the amount of inhibitor present in the medium. These curves were then used to find the median inhibitory concentration (IC50) in mole/l, which inhibits 50% of the enzymatic activity.
To be able to compare the inhibitory power of the compounds tested on the various enzymes used, the E/IC50 value was calculated, where E is the concentration of the enzyme in the reaction mixture (also expressed in mole/l ). The higher the value of this quotient, the stronger the inhibitory activity, and therefore the lower the number of moles of the inhibitor that are needed to obtain a 50% inhibition for the same number of moles of the enzyme.

Pig pancreatic elastase = Pig pancreatic elastase (Sus scrofa, UniProt P00772); test: Serine protease inhibition, E/IC50: pig pancreatic elastase; type: biochemical; details: pig pancreatic elastase vs thrombin
Method: as §4, §5, §6, §7
(§8) The results were used to plot the inhibition of the enzymatic activity against the amount of inhibitor present in the medium. […]
as §3

Plasmin = test: Serine protease inhibition, E/IC50: plasmin; type: biochemical
Method: as §4, §5, §6, §7, §8, §3

serine proteases = test: Comparison of inhibitory power over all serine proteases used (E/IC50); type: biochemical; details: all enzymes of Table 2
Method: as §4, §5, §6, §7, §8, §2, §3

Sequence of Pig pancreatic elastase (P00772 27-266): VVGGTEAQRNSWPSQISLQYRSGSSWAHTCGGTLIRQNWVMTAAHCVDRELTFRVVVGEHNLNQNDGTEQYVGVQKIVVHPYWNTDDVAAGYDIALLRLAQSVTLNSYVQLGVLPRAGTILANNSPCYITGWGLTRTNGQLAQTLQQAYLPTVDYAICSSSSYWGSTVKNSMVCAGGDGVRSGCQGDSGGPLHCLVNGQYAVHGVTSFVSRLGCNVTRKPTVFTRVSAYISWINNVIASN

**Q.** How did the “volume fraction V occupied by the cutaneous elastic fibres” value ([1]; elastase 15 μg/ml + compound 350 μg/ml, V without elastase 6.25±0.5%, with elastase alone 4.1±0.8%) turn out when `CCCCCCCCCCCC(=O)N1C(=O)c2ccccc2S1(=O)=O` [Example 1, 2-lauroylbenzisothiazolinone-1-dioxide] was run?
**A.** The value was 6.00±1%.

**Q.** What about the inhibition at 350 µg/mL ([1]; pH 8, elastase 15 μg/ml + compound 350 μg/ml, read-out: protection from the action of elastase) of the same molecule?
**A.** The inhibition at 350 µg/mL was 96%.

**Q.** And the IC50 [2]?
**A.** Its IC50 is 11 µM.

**Q.** And the “maximum inhibition (protection of insoluble elastic fibres)” value [3]?
**A.** The value was 50%.

**Q.** What about the inhibition at 45 µg/mL ([4]; 45 μg/ml, elastase 1 μg/ml, tritiated insoluble elastin 75 μg/ml) of the same molecule?
**A.** The inhibition at 45 µg/mL was 80%.

**Q.** And the IC50 ([4]; elastase 1 μg/ml incubated 10 min with compound)?
**A.** The IC50 was 75 µM.

**Q.** Which IC50 [2] does the source give for `C=CCCCCCCCCC(=O)N1C(=O)c2ccccc2S1(=O)=O` [Example 6, 2-undecenoylbenzisothiazolinone-1-dioxide] here?
**A.** Its IC50 is 75 µM.

**Q.** How did the “inhibition relative to thrombin (in words)” value [5] turn out when `CCCC(=O)N1C(=O)c2ccccc2S1(=O)=O` [2-butyryl-benzisothiazolinone-1-dioxide] was run?
**A.** The value was “more strongly than it inhibits thrombin”.

**Q.** And the “effect on trypsin (in words)” value (Trypsin; 0-50 μg/ml)?
**A.** Its value is “activates trypsin”.

**Q.** What about the E/IC50 (Trypsin; E = enzyme concentration (mole/l), N-benzoyl-DL-arginine p-nitroanilide substrate) of the same molecule?
**A.** Its E/IC50 is “activator”.

**Q.** What about the “inhibition relative to thrombin (in words)” value (Pig pancreatic elastase) of the same molecule?
**A.** The value was “more strongly than it inhibits thrombin”.

**Q.** And the “effect on plasmin (in words)” value (Plasmin; 0-50 μg/ml)?
**A.** The value was “no effect on plasmin”.

**Q.** What about the E/IC50 (Plasmin; E = enzyme concentration (mole/l), N-p-tosyl-gly-pro-lys p-nitroanilide substrate) of the same molecule?
**A.** The E/IC50 was “inactive”.

**Q.** `COc1ccc(CCCC(=O)N2C(=O)c3ccccc3S2(=O)=O)cc1` [Example 10] was tested. Which IC50 [2] did it give?
**A.** The IC50 was 36 µM.

**Q.** Which IC50 [2] does the source give for `O=C(C=Cc1ccccc1)N1C(=O)c2ccccc2S1(=O)=O` [Example 8] here?
**A.** The IC50 was 90 µM.

**Q.** With `COc1ccc(C=CC(=O)N2C(=O)c3ccccc3S2(=O)=O)cc1OC` [Example 7, 2-[(3,4)-dimethoxycinnamoyl]-benzisothiazolinone-1-dioxide] as the molecule, how does the IC50 [2] read?
**A.** The IC50 was 5 µM.

**Q.** Which IC50 [2] does the source give for `CCCCCCCCCCCCCCCCCC(=O)N1C(=O)c2ccccc2S1(=O)=O` [Example 4, 2-stearoylbenzisothiazolinone-1-dioxide] here?
**A.** Its IC50 is 4.7 µM.

**Q.** For `CCCCCCCCCC(=O)N1C(=O)c2ccccc2S1(=O)=O` [Example 5], which IC50 [2] is on record?
**A.** The IC50 was 86 µM.

**Q.** `CCCCCCCCCCCCCC(=O)N1C(=O)c2ccccc2S1(=O)=O` [Example 2, 2-myristoylbenzisothiazolinone-1-dioxide] was tested. Which IC50 [2] did it give?
**A.** Its IC50 is 9.2 µM.

**Q.** `CCCCCCCCCCCCCCCC(=O)N1C(=O)c2ccccc2S1(=O)=O` [Example 3, 2-palmitoyl-benzisothiazolinone-1-dioxide] was tested. Which “inhibition relative to thrombin” value [5] did it give?
**A.** Its value is 20-40 times.

**Q.** And the “inhibition relative to thrombin” value (Trypsin; trypsin vs thrombin)?
**A.** The value was 20-40 times.

**Q.** And the IC50 [2]?
**A.** The IC50 was 2.1 µM.

**Q.** And the “inhibition relative to thrombin” value (Pig pancreatic elastase)?
**A.** Its value is 20-40 times.

**Q.** What about the “inhibitory power relative to butyrylbenzisothiazolinone-1-dioxide (in words)” value (serine proteases) of the same molecule?
**A.** Its value is “better inhibitor than butyrylbenzisothiazolinone-1-dioxide, irrespective of the enzyme used”.

**Q.** `O=C(CCc1ccccc1)N1C(=O)c2ccccc2S1(=O)=O` [Example 9] was tested. Which IC50 [2] did it give?
**A.** The IC50 was 48 µM.
